The source of these data is patent US20230042936A1, “PYRIDO[2,3-d]PYRIMIDIN-7(8H)-ONES AS CDK INHIBITORS” (PROSENESTAR LLC, priority 2020, published 2023).

Structures are written as SMILES. “Also recorded” adds a separate entry of the source.

Series [1] relates to human cancer cell lines (MDA-MB-231, U87-MG, H460) and MCF10. Description: Suppression of proliferation of human cancer cell lines, results in words. Format: cell-based. Particulars: summary of Table 3. The protocol:
48 h later cells were fixed with PFA 4% for 15 minutes, stained with 10 μg/ml Hoechst 33342 (Molecular Probes, Thermo Fisher) for 30 minutes and washed twice with PBS. Cells were imaged in a high content screening system (Opera Phoenix™, Perkin Elmer) using a 20× dry objective (30 fields/well). Cell counts were determined by the Opera software (Perkin Elmer) and data were further processed with SPSS software. GI50 was calculated by estimating the absolute IC50 using dose-response inhibition tool in Prism6 (Graphpad Software Inc.).
The cell growth inhibitions of the subject compounds were tested in multiple human cancer cell lines with wild-type Retinoblastoma protein: MDA-MB-231 (breast), U87-MG (glioblastoma), H460 (lung); and MCF10 (as an example of non-transformed human cells) and mutant cells.

A further series relates to MDA-MB-231 cells. Description: Senescence assay (β-Galactosidase staining). Particulars: at GI50; 3 days or 14 days exposure; FIGS. 2 and 3. Format: cell-based, human. The protocol: MDA-MB-231 cells were seeded in 6-well plates (65,000 cells/well) and treated with the selected compounds at their respective GI50. At 3, 7 and 14 days after treatment cells were stained with Senescence β-Galactosidase Staining Kit (Cell Signaling) at 37° C. overnight. Blue coloured senescent cells were counted with an optical microscope. Medium and compounds were refreshed every 3 days.
Cell cycle arrest can be irreversible in case of senescence induction.

The nature of series [2]: Kinetic solubility (pH 7.4). It counts as physicochemical. Particulars: pH 7.4, aqueous buffer, kinetic from dmso stock.
A short description of series [3]: Thermodynamic solubility (pH 7.4). It counts as physicochemical. Particulars: pH 7.4, aqueous buffer, thermodynamic from solid.
The nature of series [4]: Permeability Caco-2 cells. Format: in vitro ADME. The settings on record: human, Caco-2. Background: Passage across Caco-2 layers is used to estimate intestinal permeability.
In a further series the test system is Caco-2 cells. Description: Permeability Caco-2 cells. Format: in vitro ADME.
For the next series, the system named is Cdk4/6_KO MEFs. Description: Cell growth in Cdk-deficient MEFs. Format: cell-based, mouse. Particulars: relative cell count day 6 versus day 3; FIG. 4. The procedure:
(§1) Cdk-deficient MEFs were plated in 10-cm dish in triplicate (100,000/well) and treated with the selected compounds at the indicated concentration, based on GI50 previously determined in the MDA-MB-231 cell line. Cells were counted in an optical microscope 3 and 6 days after treatment to estimate the relative cell growth in each condition.
(§2) To further investigate the relative functional dependence of the subject compounds on CDK2 versus CDK4 or CDK6, the specific effects of PS004, PS006 and PS009 were tested on CDK-deficient mouse embryonic fibroblasts (MEFs) obtained from Cdk2 knock out, Cdk4; Cdk6-double knock out and Cdk2; Cdk4; Cdk6-triple knock out mouse models.

In a further series the test system is Cdk2/4/6_KO MEFs. Description: Cell growth in Cdk-deficient MEFs. It counts as cell-based, mouse. The settings on record: relative cell count day 6 versus day 3; FIG. 4. The protocol:
as §1, §2

Series [5] is described as follows: Metabolic stability in hepatocytes. It counts as in vitro ADME. Particulars: human, 60-90 min test; for hepatocyte CLint: read-out: Metabolic stability, Human hepatocytes: Clearance; for half-life: read-out: Metabolic stability, Human hepatocytes: t1/2.
Series [6] has as its system pRB-wild-type and pRB-deficient glioblastoma cells (U87MG, SW1783). Description: GI50 compared in pRB-wild-type and pRB-deficient cells. It counts as cell-based, human. Particulars: comparison of GI50, Table 4. The procedure:
(§3) […]. Cell counts were determined by the Opera software (Perkin Elmer) and data were further processed with SPSS software. GI50 was calculated by estimating the absolute IC50 using dose-response inhibition tool in Prism6 (Graphpad Software Inc.).
(§4) CDK4/6 kinases drive cell cycle progression by phosphorylating the retinoblastoma protein (pRB), thus, releasing its repressive activity on transcription. Accordingly, CDK4/6 specific inhibitors are inefficient in pRB-deficient cells, as cell cycle transcription is induced with independence of CDK4/6 activity. The subject compounds were therefore evaluated to what extent depend on the presence of a functional pRB. Two pairs of human cancer cell lines representing pRB-wild-type and pRB-deficient breast cancer and glioblastoma were tested. […].

Series [7] relates to pRB-wild-type and pRB-deficient breast cancer cells (MDA-MB-231, MDA-MB-468). The description is as above. It counts as cell-based, human. The settings on record: comparison of GI50, Table 4. The protocol:
as §3, §4

A short description of series [8]: Toxicologic evaluation in vivo. The settings on record: 50 or 100 mg/kg intraperitoneally twice a week for two weeks; for lung toxicity (hemorrhage in the lungs), mice affected: FIG. 11.
A short description of series [9]: Metabolic stability in microsomes. Particulars: human, 60-90 min test; for microsomal CLint: read-out: Metabolic stability, Human microsomes: Clearance; for half-life: read-out: Metabolic stability, Human microsomes: t1/2. It counts as in vitro ADME.
In a further series the test system is phospho RB1 Ser807/811. Description: In vivo target engagement (phospho-RB staining of tissues). Particulars: FIG. 7. Details: species or system mice. An excerpt:
FIG. 7 depicts the effect of PS004, PS006 and PS009 on the phosphorylation of the retinoblastoma protein in different tissues using antibodies against phospho RB1 Ser807/811. Micrographs are representative from three different mice per treatment.
For histological analysis, mice tissues and human xenografts were fixed in 10%-buffered formalin (Sigma) and embedded in paraffin wax. Sections of 3- or 5-μm thickness were stained with haematoxylin and eosin. Additional immunohistochemical examination was performed using a specific antibody against phospho-Rb (Ser807/811; Cell Signaling) or Ki67 (DAKO).
For in vivo evaluation, the target engagement for the subject compounds in vivo was tested first.

In series [10] the test system is luminal-like (ZR75-1, T47D, MCF7) and non-luminal (HCC1143, MDA-MB-231, BT549, MDA-MB-468) breast cancer cell lines. Description: Relative cell growth in a panel of breast cancer cell lines (6 days). Particulars: 6 days at GI50 dose (determined in MDA-MB-231); FIG. 5. Format: cell-based, human. The protocol:
Data are mean±s.e.m. (3 technical replicates).
Relative cell proliferation was calculated by counting cell number at day 6 in treated cells versus cells treated with vehicle (DMSO).

Series [11] has as its system pRB phosphorylation and cell cycle markers in MDA-MB-231 and MDA-MB-468 cells. Description: Immunoblotting of cell cycle markers. It counts as cell-based, human. The settings on record: GI50 dose, 48 hours; FIG. 6. The protocol: MDA-MB-231 and MDA-MB-468 cells were treated with the indicated compounds using the G150 corresponding to the MDA-MB-231 cell line, and 48 hours later lysed in Laemmli buffer (60 mM Tris-Cl pH 6.8, 10% Glycerol, 2% SDS). Protein concentration was determined using BCA method (Pierce).
For orientation: A western blot detects proteins with antibodies after separation by electrophoresis.

In the case of `CC(O)COC1CCN(c2ccc(Nc3ncc4ccc(=O)n([C@@H]5CC6CCC5C6)c4n3)cc2)CC1` (stereo partly drawn) [PS006, 8-((2R)-bicyclo[2.2.1]heptan-2-yl)-2-((4-(4-(2-hydroxypropoxy)piperidin-1-yl)phenyl)amino)pyrido[2,3-d]pyrimidin-7(8H)-one], in [1], the “suppression of cell proliferation” value was “potent cell growth inhibition”. Moreover, the “SA-βGAL staining (senescence induction)” value in the series on MDA-MB-231 cells was “induced high levels of SA-βGAL staining; also recorded: induced high senescence”. Also, the kinetic solubility (in general, solubility judged after dilution from a stock solution rather than from solid) in series [2] was below 1 µM. Also, in series [3], the solubility (thermodynamic) (usually the concentration in solution at equilibrium with solid) was below 2 µM. In addition, the Papp (usually the rate of passage across a membrane or cell layer, normalised by area and donor concentration) in series [4] turned out to be 4.62 ×10⁻⁶ cm/s. Moreover, in the series with Caco-2 cells, the “Permeability Caco-2 cells: Efflux, grade in words” value is reported as “(poor)” and the “Permeability Caco-2 cells: Permeability, grade in words” value is listed as “(high)”. Besides, the “cell proliferation of Cdk4; Cdk6-double knock out MEFs” value (“cell proliferation of Cdk4” for short) in the series on Cdk4/6_KO MEFs was “efficient in preventing cell proliferation”. The “cell proliferation of Cdk2; Cdk4; Cdk6-triple knock out MEFs” value (shortened to “cell proliferation of Cdk2; Cdk4”) in the series with Cdk2/4/6_KO MEFs is on record as “efficient in preventing cell proliferation”. Besides, in series [5], the hepatocyte CLint came out at 49 µL/min/1e6 cells and the half-life was 28.3 min. The “efficiency in pRB-deficient versus pRB-wild-type glioblastoma cells” value in [6] is reported as “equally efficient”. The “efficiency in pRB-null versus pRB-wild-type breast cancer cells” value in series [7] was “equally efficient”. In series [8], the “histopathology of the spleen” value is recorded as “active extramedullar hematopoiesis” and the “lung toxicity (hemorrhage in the lungs), mice affected” value (from here on “lung toxicity”) was 1 out of 6. Moreover, in series [9], the microsomal CLint worked out at 119 µL/min/mg and the half-life came to 11.6 min.

With `CC(O)CCC1CCN(c2ccc(Nc3ncc4ccc(=O)n([C@@H]5CC6CCC5C6)c4n3)cc2)CC1` (stereo partly drawn) [PS004, 8-((2R)-bicyclo[2.2.1]heptan-2-yl)-2-((4-(4-(3-hydroxybutyl)piperidin-1-yl)phenyl)amino)pyrido[2,3-d]pyrimidin-7(8H)-one], in series [1], the “suppression of cell proliferation” value is “inhibited cell growth with high potential”. In the series with phospho RB1 Ser807/811, the “phospho-RB staining in bone marrow, intestine and spleen” value is listed as “evident RB target inhibition”. Also, the kinetic solubility in [2] is below 1 µM. Further, in series [3], the solubility (thermodynamic) was below 2 µM. Moreover, the Papp in [4] was below 0.44 ×10⁻⁶ cm/s. Moreover, in the series on Caco-2 cells, the “Permeability Caco-2 cells: Permeability, grade in words” value is listed as “(low)”. The “cell proliferation of Cdk4” value in the series on Cdk4/6_KO MEFs is on record as “efficient in preventing cell proliferation”. For the same compound, the “cell proliferation of Cdk2; Cdk4” value with Cdk2/4/6_KO MEFs is on record as “efficient in preventing cell proliferation”. Besides, in [5], the hepatocyte CLint was below 6.4 µL/min/1e6 cells and the half-life was above 217 min. In addition, in series [6], the “efficiency in pRB-deficient versus pRB-wild-type glioblastoma cells” value is “more inefficient”. For the same compound, in series [8], the “histopathology of the bone marrow” value is “hypoplasia/reactive bone marrow”; the “histopathology of the intestine” value is given as “aberrant mitotic figures”; the “histopathology of the spleen” value was “active extramedullar hematopoiesis”; the “lung toxicity” value is recorded as 4 out of 6. Besides, the “blood counts (white blood cells, lymphocytes)” value in series [8] (FIG. 10) was “reduced lymphocyte counts”. Also, in series [9], the microsomal CLint came out at 40.8 µL/min/mg and the half-life worked out at 34 min.

Regarding `CC(=O)c1c(C)c2cnc(Nc3ccc(N4CCC(CCCO)CC4)cc3)nc2n(C2CCCC2)c1=O` [PS009, 6-acetyl-8-cyclopentyl-2-((4-(4-(3-hydroxypropyl)piperidin-1-yl)phenyl)amino)-5-methylpyrido[2,3-d]pyrimidin-7(8H)-one], the “phospho-RB staining in bone marrow, intestine and spleen” value in the series with phospho RB1 Ser807/811 is given as “evident RB target inhibition”. In addition, the “SA-βGAL staining (senescence induction)” value in the series on MDA-MB-231 cells was “induced high levels of SA-βGAL staining; also recorded: very high SA-BGAL activity induction”. The “relative cell growth, luminal-like and non-luminal breast cancer cell lines” value in [10] is “efficient in both pRB-wild-type and mutant cell lines; also recorded: efficiently inhibit both luminal and non-luminal breast cancer cells; also recorded: able to inhibit proliferation in non-luminal, pRB-mutant breast cancer cells lines”. The solubility (kinetic) in series [2] is below 1 µM. Also, in series [11], the “levels of cell cycle markers” value is on record as “reduced levels of most cell cycle markers” and the pRB phosphorylation entry was “strong inhibition”. This compound also returned a solubility (thermodynamic) in series [3] below 2 µM. In [4], this compound registered a Papp below 0.43 ×10⁻⁶ cm/s. Further, the “Permeability Caco-2 cells: Permeability, grade in words” value in the series with Caco-2 cells was “(low)”. Also, the “cell proliferation of Cdk4” value in the series on Cdk4/6_KO MEFs was “efficient in preventing cell proliferation”. Besides, in the series with Cdk2/4/6_KO MEFs, the “cell proliferation of Cdk2; Cdk4” value is “efficient in preventing cell proliferation”. Also, in series [5], the hepatocyte CLint turned out to be 41.7 µL/min/1e6 cells and the half-life came out at 33.3 min. Further, the “efficiency in pRB-deficient versus pRB-wild-type glioblastoma cells” value in series [6] is reported as “equally efficient”. For the same compound, the “efficiency in pRB-null versus pRB-wild-type breast cancer cells” value in series [7] is recorded as “equally efficient”. In addition, the “blood counts (white blood cells, lymphocytes)” value in series [8] (FIG. 10) is “no defects in blood counts”. Besides, the “lung toxicity” value in series [8] is recorded as 1 out of 6. Moreover, the mouse weight entry in series [8] (vs DMSO, FIG. 10) is on record as “induced weight loss”. In addition, in series [9], the microsomal CLint was found to be 33 µL/min/mg and the half-life came to 42 min.
